According to the supplement of paper PMC10307832:

Assays:
Assay in all cases: relative viability (nuclei count vs DMSO), 5 days (fraction); higher = more cells survive
LXF-289 = test system: LXF-289
Outline: (§1)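 Medians of duplicate plates are given as relative viability. That measure is the nuclei count in treated wells divided by the count in vehicle wells. Counts were taken on 4× images of lung cancer cell lines in 1536-well plates, 5 days after pin-tool dosing the day after seeding with one drug alone or a fixed anchor-drug dose plus five library-drug doses (not always all listed) in √10 steps.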

NCI-H2170 = test system: NCI-H2170
Outline: as §1

NCI-H441 = test system: NCI-H441
Outline: as §1

NCI-H1792 = test system: NCI-H1792
Outline: as §1

RERF-LC-KJ = test system: RERF-LC-KJ
Outline: as §1

NCI-H1755 = test system: NCI-H1755
Outline: as §1

NCI-H1355 = test system: NCI-H1355
Outline: as §1

NCI-H522 = test system: NCI-H522
Outline: as §1

LCLC-103H = test system: LCLC-103H
Outline: as §1

NCI-H322M = test system: NCI-H322M
Outline: as §1

NCI-H1915 = test system: NCI-H1915
Outline: as §1

SK-MES-1 = test system: SK-MES-1
Outline: as §1

NCI-H460 = test system: NCI-H460
Outline: as §1

NCI-H520 = test system: NCI-H520
Outline: as §1

NCI-H1651 = test system: NCI-H1651
Outline: as §1

NCI-H661 = test system: NCI-H661
Outline: as §1

NCI-H2347 = test system: NCI-H2347
Outline: as §1

SW 900 = test system: SW 900
Outline: as §1

PC-14 = test system: PC-14
Outline: as §1

NCI-H727 = test system: NCI-H727
Outline: as §1

NCI-H596 = test system: NCI-H596
Outline: as §1

NCI-H3122 = test system: NCI-H3122
Outline: as §1

NCI-H650 = test system: NCI-H650
Outline: as §1

## C[C@@H]1CN(CC(=O)Nc2ccc3c(c2)Cc2cccc(-c4cc(=O)cc(N5CCOCC5)o4)c2S3)C[C@H](C)O1 + O=C(c1cc(Cc2n[nH]c(=O)c3ccccc23)ccc1F)N1CCN(C(=O)C2CC2)CC1 [Olaparib] (partner 8 µM)
LXF-289; first compound 0.04 µM
  relative viability: 0.998
LXF-289; first compound 0.1265 µM
  relative viability: 1.1
LXF-289; first compound 0.4 µM
  relative viability: 1.21
LXF-289; first compound 4 µM
  relative viability: 1.05
NCI-H2170; first compound 0.04 µM
  relative viability: 0.648
NCI-H2170; first compound 0.1265 µM
  relative viability: 0.609
NCI-H2170; first compound 0.4 µM
  relative viability: 0.578
NCI-H2170; first compound 4 µM
  relative viability: 0.523
NCI-H441; first compound 0.04 µM
  relative viability: 0.636
NCI-H441; first compound 0.1265 µM
  relative viability: 0.551
NCI-H441; first compound 0.4 µM
  relative viability: 0.507
NCI-H441; first compound 4 µM
  relative viability: 0.141
NCI-H1792; first compound 0.04 µM
  relative viability: 0.715
NCI-H1792; first compound 0.1265 µM
  relative viability: 0.407
NCI-H1792; first compound 0.4 µM
  relative viability: 0.315
NCI-H1792; first compound 4 µM
  relative viability: 0.102
RERF-LC-KJ; first compound 0.04 µM
  relative viability: 0.917
RERF-LC-KJ; first compound 0.1265 µM
  relative viability: 0.984
RERF-LC-KJ; first compound 0.4 µM
  relative viability: 1.01
RERF-LC-KJ; first compound 4 µM
  relative viability: 0.323
NCI-H1755; first compound 0.04 µM
  relative viability: 0.845
NCI-H1755; first compound 0.1265 µM
  relative viability: 0.918
NCI-H1755; first compound 0.4 µM
  relative viability: 0.833
NCI-H1755; first compound 4 µM
  relative viability: 0.958
NCI-H1355; first compound 0.04 µM
  relative viability: 0.783
NCI-H1355; first compound 0.1265 µM
  relative viability: 0.699
NCI-H1355; first compound 0.4 µM
  relative viability: 0.664
NCI-H1355; first compound 4 µM
  relative viability: 0.482
NCI-H522; first compound 0.04 µM
  relative viability: 0.612
NCI-H522; first compound 0.1265 µM
  relative viability: 0.667
NCI-H522; first compound 0.4 µM
  relative viability: 0.576
NCI-H522; first compound 4 µM
  relative viability: 0.614
LCLC-103H; first compound 0.04 µM
  relative viability: 0.71
LCLC-103H; first compound 0.1265 µM
  relative viability: 0.739
LCLC-103H; first compound 0.4 µM
  relative viability: 0.771
LCLC-103H; first compound 4 µM
  relative viability: 0.722
NCI-H322M; first compound 0.04 µM
  relative viability: 0.632
NCI-H322M; first compound 0.1265 µM
  relative viability: 0.794
NCI-H322M; first compound 0.4 µM
  relative viability: 0.81
NCI-H322M; first compound 4 µM
  relative viability: 0.643
NCI-H1915; first compound 0.04 µM
  relative viability: 0.25
NCI-H1915; first compound 0.1265 µM
  relative viability: 0.248
NCI-H1915; first compound 0.4 µM
  relative viability: 0.265
NCI-H1915; first compound 4 µM
  relative viability: 0.182
SK-MES-1; first compound 0.04 µM
  relative viability: 0.78
SK-MES-1; first compound 0.1265 µM
  relative viability: 0.721
SK-MES-1; first compound 0.4 µM
  relative viability: 0.686
SK-MES-1; first compound 4 µM
  relative viability: 0.252
NCI-H460; first compound 0.04 µM
  relative viability: 0.506
NCI-H460; first compound 0.1265 µM
  relative viability: 0.444
NCI-H460; first compound 0.4 µM
  relative viability: 0.502
NCI-H460; first compound 4 µM
  relative viability: 0.112
NCI-H520; first compound 0.04 µM
  relative viability: 0.43
NCI-H520; first compound 0.1265 µM
  relative viability: 0.308
NCI-H520; first compound 0.4 µM
  relative viability: 0.31
NCI-H520; first compound 4 µM
  relative viability: 0.202
NCI-H1651; first compound 0.04 µM
  relative viability: 0.173
NCI-H1651; first compound 0.1265 µM
  relative viability: 0.167
NCI-H1651; first compound 0.4 µM
  relative viability: 0.178
NCI-H1651; first compound 4 µM
  relative viability: 0.139
NCI-H661; first compound 0.04 µM
  relative viability: 0.814
NCI-H661; first compound 0.1265 µM
  relative viability: 0.77
NCI-H661; first compound 0.4 µM
  relative viability: 0.784
NCI-H661; first compound 4 µM
  relative viability: 0.622
NCI-H2347; first compound 0.04 µM
  relative viability: 0.636
NCI-H2347; first compound 0.1265 µM
  relative viability: 0.545
NCI-H2347; first compound 0.4 µM
  relative viability: 0.57
NCI-H2347; first compound 4 µM
  relative viability: 0.448
SW 900; first compound 0.04 µM
  relative viability: 0.869
SW 900; first compound 0.1265 µM
  relative viability: 0.993
SW 900; first compound 0.4 µM
  relative viability: 0.815
SW 900; first compound 4 µM
  relative viability: 0.445
PC-14; first compound 0.04 µM
  relative viability: 0.249
PC-14; first compound 0.1265 µM
  relative viability: 0.169
PC-14; first compound 0.4 µM
  relative viability: 0.205
PC-14; first compound 4 µM
  relative viability: 0.09
NCI-H727; first compound 0.04 µM
  relative viability: 0.831
NCI-H727; first compound 0.1265 µM
  relative viability: 0.77
NCI-H727; first compound 0.4 µM
  relative viability: 0.835
NCI-H727; first compound 4 µM
  relative viability: 0.64
NCI-H596; first compound 0.04 µM
  relative viability: 0.601
NCI-H596; first compound 0.1265 µM
  relative viability: 0.624
NCI-H596; first compound 0.4 µM
  relative viability: 0.641
NCI-H596; first compound 4 µM
  relative viability: 0.486
NCI-H3122; first compound 0.04 µM
  relative viability: 0.607
NCI-H3122; first compound 0.1265 µM
  relative viability: 0.591
NCI-H3122; first compound 0.4 µM
  relative viability: 0.645
NCI-H3122; first compound 4 µM
  relative viability: 0.518
NCI-H650; first compound 0.04 µM
  relative viability: 0.436
NCI-H650; first compound 0.1265 µM
  relative viability: 0.48
NCI-H650; first compound 0.4 µM
  relative viability: 0.438
NCI-H650; first compound 4 µM
  relative viability: 0.258
